The values that follow come from patent US12285422B2, “Uses of piperidinyl-indole derivatives” (priority 2017, dated 2025).

Experiment [1] concerns passive Heymann nephritis in rats. Kind of experiment: Passive Heymann nephritis in rats (model for membranous nephropathy). The class given is in vivo, rat. Conditions: for combined histopathology score: p<0.005; for reduction of proteinuria: twice daily oral gavage, 14 days post transfer, p<0.0001; for proteinuria: 60 mg/kg twice daily oral gavage starting 6 days post serum transfer. From the text: 4. FB Inhibitor Prevents the Development and Progression of Passive Heymann Nephritis in Rats
Passive Heymann nephritis in the rat is the most common animal model for membranous nephropathy (see Jefferson J A, Pippin J W and Shankland S J 2010. Experimental Models of membranous nephropathy. Drug Discov Today Dis Models. 7(1-2):27-33). It is induced by the transfer of a polyclonal serum derived from rabbits immunized with rat megalin and manifests inflammatory changes in the kidney that are highly reminiscent with the human disease. Significant proteinuria is observed 4 days after the antibody transfer and increases until 2 weeks post transfer.

The subject of experiment [2] is human microvascular endothelial cell line (HMEC-1). Kind of experiment: C3 deposition on ADP-activated HMEC-1 exposed to STEC-HUS patient serum. It counts as cell-based. The settings on record: for reduction of C3 deposition on ADP-activated HMEC-1: STEC-HUS patient serum, 4 hours, p<0.0001. How it is done:
As described in Morigi et al., 2011 (Morigi M, Galbusera M, Gastoldi S, Locatelli, M, Buelli, S, Pezzotta A, Pagani C, Noris M, Gobbi M, Stravalaci M, Rottoli D, Tedesco F, Remuzzi G and Joja C: 2011. Alternative pathway activation of complement by Shiga toxin promotes exuberant C3a formation that triggers microvascular thrombosis. J Immunol. 187(1):172-80), human microvascular endothelial cell line of dermal origin (HMEC-1, ATCC CRL-3243) were plated on glass slides and used when confluent. […]. At the end of the incubation step HMEC-1 were treated with fluorochrome-conjugated anti-human C3c. In each experiment, a pool of sera from healthy controls was tested in parallel with patient serum. A confocal inverted laser microscope was used for acquisition of the fluorescent staining on endothelial cell surface.
Fifteen fields per sample were acquired and the area occupied by the fluorescent staining was evaluated by automatic edge detection using built-in specific functions of the software Image J and expressed as pixel2 per field analyzed. The highest and lowest values were discarded and the mean±SE was calculated on the remaining 13 fields.
Results: Serum from patients with acute STEC-HUS induced a massive C3 deposition on ADP-activated endothelial cells in respect to sera from healthy controls (P<0.0001). […].

Molecules are shown by their SMILES.

On to `CCO[C@H]1CCN(Cc2c(OC)cc(C)c3[nH]ccc23)[C@H](c2ccc(C(=O)O)cc2)C1` [compound of embodiment 5, 4-((2S,4S)-4-ethoxy-1-((5-methoxy-7-methyl-1H-indol-4-yl)methyl)piperidin-2-yl)benzoic acid], for which the combined histopathology score amounted to 0.3 in experiment [1] (prophylactic, 20 mg/kg, vehicle 2.2); 0.4 in experiment [1] (prophylactic, 60 mg/kg, vehicle 2.2); 1.1 in experiment [1] (therapeutic, 60 mg/kg twice daily oral gavage starting day 6, vehicle 2.7). Also, the reduction of proteinuria in experiment [1] (prophylactic, 20 mg/kg/d) amounted to 82%; in experiment [1] (prophylactic, 60 mg/kg/d) it was 75%. In addition, the proteinuria in experiment [1] (therapeutic, day 6 (control 0.79)) worked out at 0.74; in experiment [1] (therapeutic, day 14 (control 1.93)), 0.81. Further, the “effect on disease progression” value in experiment [1] (therapeutic, 60 mg/kg twice daily oral gavage starting after manifestation of proteinuria (6 days post serum transfer)) is on record as “blocked further progression of the disease”. In addition, the “reduction of C3 deposition on ADP-activated HMEC-1” value was found to be 73% in experiment [2] (1 microM) and 89% in experiment [2] (10 microM). For the same molecule, the “C3 deposits on endothelial cells versus cells exposed to control sera” value in experiment [2] (10 microM, STEC-HUS serum) is given as “did not significantly differ”.
